Laboratory results from PubChem BioAssay AID256 (DTP/NCI, 2004).
“And” between values parts separate entries of the source, which are not always exact repeats. Equal entries are not always repeated. Toxic doses and inconclusive results are not listed.

System: CD2F1 mice, L1210 leukemia ip, survival T/C
Test: NCI In Vivo Anticancer Drug Screen. Data for tumor model L1210 Leukemia (intraperitoneal) in CD2F1 (CDF1) mice
Details: higher = longer survival
Method in brief: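 Transplantable tumor in mice; compound-treated vs vehicle-treated groups. Read-out = treated/control ratio of the measured endpoint.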

[1] = endpoint: median survival time, dose: 100.0 mg/kg/injection, schedule: Q04DX003 (ip), vehicle: saline with Tween-80
[2] = endpoint: mean survival time, dose: 100.0 mg/kg/injection, schedule: Q01DX009 (ip), vehicle: saline with Tween-80
[3] = endpoint: mean survival time, dose: 100.0 mg/kg/injection, schedule: Q04DX003 (ip), vehicle: saline with Tween-80
[4] = endpoint: mean survival time, dose: 200.0 mg/kg/injection, schedule: Q01DX009 (ip), vehicle: saline with Tween-80
[5] = endpoint: mean survival time, dose: 200.0 mg/kg/injection, schedule: Q04DX003 (ip), vehicle: saline with Tween-80
[6] = endpoint: mean survival time, dose: 400.0 mg/kg/injection, schedule: Q04DX003 (ip), vehicle: saline with Tween-80

For CC1CC(C)CC(C)C(O)/C(C#N)=C/C=C/CC(C2CCCC2C(=O)O)OC(=O)CC(O)C(C)C1 (stereo not drawn), the T/C (endpoint: mean survival time, dose: 1.56 mg/kg/injection, schedule: Q01DX009 (ip), vehicle: Klucel (hydroxypropylcellulose) (HPC)) was 105 % of control, the T/C (endpoint: mean survival time, dose: 3.13 mg/kg/injection, schedule: Q01DX009 (ip), vehicle: Klucel (hydroxypropylcellulose) (HPC)) was 109 % of control and the T/C (endpoint: mean survival time, dose: 6.25 mg/kg/injection, schedule: Q01DX009 (ip), vehicle: Klucel (hydroxypropylcellulose) (HPC)) was 89 % of control and 96 % of control.
For CCCCOC(=O)c1ccc(Cl)c(Cl)c1, the T/C (endpoint: mean survival time, dose: 100.0 mg/kg/injection, schedule: Q04DX003 (ip), vehicle: Klucel (hydroxypropylcellulose) (HPC)) was 92 % of control, the T/C (endpoint: mean survival time, dose: 200.0 mg/kg/injection, schedule: Q04DX003 (ip), vehicle: Klucel (hydroxypropylcellulose) (HPC)) was 96 % of control and the T/C (endpoint: mean survival time, dose: 400.0 mg/kg/injection, schedule: Q04DX003 (ip), vehicle: Klucel (hydroxypropylcellulose) (HPC)) was 103 % of control.
For O=c1nc(-c2ccccc2)c(-c2ccccc2)n[nH]1, the T/C (endpoint: mean survival time, dose: 100.0 mg/kg/injection, schedule: Q04DX003 (ip), vehicle: saline) was 97 % of control and the T/C (endpoint: mean survival time, dose: 200.0 mg/kg/injection, schedule: Q04DX003 (ip), vehicle: saline) was 94 % of control.
For CN(C)c1ccc(N=Nc2cccc(C(=O)[O-])c2)cc1.CN(C)c1ccc(N=Nc2cccc(C(=O)[O-])c2)cc1.NC1CCCCC1N.O=[N+]([O-])O.[Pt+4], the T/C (endpoint: median survival time, dose: 3.12 mg/kg/injection, schedule: Q04DX003 (ip), vehicle: saline with Tween-80) was 104 % of control and 108 % of control, the T/C (endpoint: median survival time, dose: 6.25 mg/kg/injection, schedule: Q04DX003 (ip), vehicle: saline with Tween-80) was 105 % of control and 110 % of control and the T/C (endpoint: median survival time, dose: 12.5 mg/kg/injection, schedule: Q04DX003 (ip), vehicle: saline with Tween-80) was 120 % of control and 105 % of control. The T/C (endpoint: median survival time, dose: 25.0 mg/kg/injection, schedule: Q04DX003 (ip), vehicle: saline with Tween-80) was 110 % of control, the T/C [1] was 212 % of control and 313 % of control and the T/C (endpoint: median survival time, dose: 200.0 mg/kg/injection, schedule: Q04DX003 (ip), vehicle: saline with Tween-80) was 361 % of control.
CCCCCOC(=S)S was tested, and the T/C (endpoint: mean survival time, dose: 9.37 mg/kg/injection, schedule: Q04DX003 (ip), vehicle: Klucel (hydroxypropylcellulose) (HPC)) was 86 % of control and the T/C (endpoint: mean survival time, dose: 37.5 mg/kg/injection, schedule: Q04DX003 (ip), vehicle: Klucel (hydroxypropylcellulose) (HPC)) was 86 % of control.
In the case of Cc1ccc(C(C)C)c(O)c1O, the T/C (endpoint: mean survival time, dose: 25.0 mg/kg/injection, schedule: Q01DX009 (ip), vehicle: saline with Tween-80) is reported as 94 % of control, the T/C (endpoint: mean survival time, dose: 25.0 mg/kg/injection, schedule: Q04DX003 (ip), vehicle: saline with Tween-80) is reported as 96 % of control and the T/C (endpoint: mean survival time, dose: 50.0 mg/kg/injection, schedule: Q01DX009 (ip), vehicle: saline with Tween-80) is reported as 103 % of control. For the same compound, the T/C (endpoint: mean survival time, dose: 50.0 mg/kg/injection, schedule: Q04DX003 (ip), vehicle: saline with Tween-80) was 98 % of control, the T/C [2] was 97 % of control and the T/C [3] was 94 % of control.
In the case of NC(=O)c1ncnc2c1ncn2C1OC(CO)C(O)C1O (stereo not drawn), the T/C (endpoint: mean survival time, dose: 12.5 mg/kg/injection, schedule: Q01DX005 (ip), vehicle: water) is reported as 104 % of control and 102 % of control, the T/C (endpoint: mean survival time, dose: 25.0 mg/kg/injection, schedule: Q01DX005 (ip), vehicle: water) is reported as 104 % of control and 97 % of control and the T/C (endpoint: mean survival time, dose: 50.0 mg/kg/injection, schedule: Q01DX005 (ip), vehicle: water) is reported as 106 % of control and 96 % of control. For the same compound, the T/C (endpoint: mean survival time, dose: 100.0 mg/kg/injection, schedule: Q01DX005 (ip), vehicle: water) was 110 % of control and 100 % of control and the T/C (endpoint: mean survival time, dose: 200.0 mg/kg/injection, schedule: Q01DX005 (ip), vehicle: water) was 110 % of control and 96 % of control.
In the case of COc1cc(C)ccc1Cl, the T/C [2] is reported as 101 % of control and the T/C [4] is reported as 118 % of control.
In the case of CC(C)(C)c1nc2ccccc2p1-c1ccccc1 (stereo not drawn), the T/C (endpoint: mean survival time, dose: 100.0 mg/kg/injection, schedule: Q01DX001 (ip), vehicle: other) is reported as 98 % of control, the T/C (endpoint: mean survival time, dose: 200.0 mg/kg/injection, schedule: Q01DX001 (ip), vehicle: other) is reported as 91 % of control and the T/C (endpoint: mean survival time, dose: 400.0 mg/kg/injection, schedule: Q01DX001 (ip), vehicle: other) is reported as 95 % of control.
CCCCCCCCC1SC1CCCCCCCC(=O)OCCN(C)C(=O)CCCCCCCC1SC1CCCCCCCC (stereo not drawn) was tested, and the T/C (endpoint: mean survival time, dose: 100.0 mg/kg/injection, schedule: Q04DX003 (ip), vehicle: other) was 100 % of control, the T/C (endpoint: mean survival time, dose: 200.0 mg/kg/injection, schedule: Q04DX003 (ip), vehicle: other) was 92 % of control and the T/C (endpoint: mean survival time, dose: 400.0 mg/kg/injection, schedule: Q04DX003 (ip), vehicle: other) was 90 % of control.
NC(=O)c1c[n+](Cc2ccccc2)ccn1 was tested, and the T/C (endpoint: mean survival time, dose: 75.0 mg/kg/injection, schedule: Q01DX001 (ip), vehicle: saline) was 104 % of control.
With Cc1ccc(-c2cc(Cl)c3cc(S(=O)(=O)F)ccc3n2)cc1 the T/C [2] was 102 % of control, the T/C [3] was 104 % of control and the T/C [4] was 98 % of control. The T/C [5] was 102 % of control, the T/C (endpoint: mean survival time, dose: 400.0 mg/kg/injection, schedule: Q01DX009 (ip), vehicle: saline with Tween-80) was 90 % of control and the T/C [6] was 107 % of control.
With O=C1NN=C(C2CCCCC2)C12CCCCC2 the T/C [3] was 96 % of control, the T/C [5] was 100 % of control and the T/C [6] was 94 % of control.
BrCc1cccc2cccnc12 was tested, and the T/C [2] was 88 % of control, the T/C (endpoint: median survival time, dose: 50.0 mg/kg/injection, schedule: Q04DX003 (ip), vehicle: saline with Tween-80) was 88 % of control and the T/C [1] was 88 % of control.
